This test concerns human embryonic stem cell derived neural stem cells (NSCs). The test is described as follows: Neural stem cell proliferation assay (neurogenesis assay, ATP levels by CellTiterGlo). It is filed as cell-based. Particulars: 96 h, compound concentration at which 150% activity of control (100%) is reached, NSC proliferation, ATP readout after 4 days incubation. Here is the method:
Neural Stem Cell Proliferation Assay
Neurogenic properties of small molecules are determined based on the proliferation of human embryonic stem cell derived neural stem cells (NSCs) which were derived via a dual smad inhibition as previously described (Chambers, S. M., et al., Highly efficient neural conversion of human ES and iPS cells by dual inhibition of SMAD signaling, Nature biotechnology, 2009. 27(3): p. 275-80.) Compounds respond is measured by the increase in cells based on ATP levels (Promega:CellTiterGlo®) after an incubation period of 4 days. NSCs are thawed and expanded over 3 passages. On the 14th day, NSCs are seeded in Polyornithin/Laminin coated 384 well plates at a cell density of 21,000 cells/cm^2 in a media volume of 38 μl. 4 hours after cell seeding, compound solutions are added at a volume of 2 μl. Stock solutions of the compounds (water, 5% DMSO) are diluted to obtain a dose response (11 points, dilution factor is 2), ranging from 8 μM to 8 nM. Controls are run to consistently determine the neurogenic properties of the cells: Negative (neutral) control is cell culture Media (final DMSO concentration: 0.25%). Positive controls are: • 1. cell culture Media+100 ng/ml FGF2 (final DMSO concentration: 0.1%) • 2. cell culture Media+20 ng/ml EGF (final DMSO concentration: 0.1%) • 3. cell culture Media+100 ng/ml Wnt3a (final DMSO concentration: 0.1%) After 4 days incubation at 37° C., 5% CO2, the amount of ATP per well is quantified. The ATP concentration is proportional to the cell number. ATP is quantified by using the Promega CellTiterGlo® kit. The CellTiterGlo® reagents contain a cell lysis buffer, a thermo stable luciferase (UltraGlo™ recombinant luciferase), magnesium and luciferin. Luciferin reacts with ATP producing oxyluciferin, AMP and light. The luminescence signal is proportional to the ATP content. The value of negative (neutral) control is determined for each assay plate by taking the average of 16 negative control wells. The neurogenic compound response is calculated for each compound as (compound/Negative Control)*100. The values of EC150 from the dose response curve are determined for each test compound. The EC150 is the compound concentration at which 150% activity of control (100%) is reached.
On to `NC(=O)c1cnc2cncc(-c3ccc(Cl)cc3)c2n1` [Example 1, 8-(4-Chlorophenyl)pyrido[4,3-b]pyrazine-2-carboxamide], for which the EC (150% of control) is 0.21 µM.

`NC(=O)c1cnc2cncc(-c3ccc(C(F)(F)F)cc3)c2n1` [Example 2, 8-(4-(Trifluoromethyl)phenyl)pyrido[4,3-b]pyrazine-2-carboxamide] yielded an EC (150% of control) of 0.3 µM.

For the compound `N#CC1(NC(=O)c2cnc3cncc(Br)c3n2)CC1` [Example 3, 8-Bromo-N-(1-cyanocyclopropyl)pyrido[4,3-b]pyrazine-2-carboxamide], the EC (150% of control) is 2.32 µM.

For `O=C(c1cnc2cncc(Br)c2n1)N1CCOCC1` [Example 4, (8-Bromopyrido[4,3-b]pyrazin-2-yl)(morpholino)methanone], the EC (150% of control) worked out at 0.07 µM.

`CC(NC(=O)c1cnc2cncc(-c3ccc(Cl)cc3)c2n1)C(C)(C)O` (centres unmarked) [Example 5, 8-(4-Chlorophenyl)-N-(3-hydroxy-3-methylbutan-2-yl)pyrido[4,3-b]pyrazine-2-carboxamide] showed an EC (150% of control) of 0.89 µM.

In turn, `CC(NC(=O)c1cnc2cncc(-c3ccc(C(F)(F)F)cc3)c2n1)C(C)(C)O` (centres unmarked) [Example 6, N-(3-Hydroxy-3-methylbutan-2-yl)-8-(4-(trifluoromethyl)phenyl)pyrido[4,3-b]pyrazine-2-carboxamide] showed an EC (150% of control) of 0.38 µM.

For the compound `N#CC1(NC(=O)c2cnc3cncc(-c4ccc(Cl)cc4)c3n2)CC1` [Example 7, 8-(4-Chlorophenyl)-N-(1-cyanocyclopropyl)pyrido[4,3-b]pyrazine-2-carboxamide], the EC (150% of control) was determined as 0.39 µM.

Compound `N#CC1(NC(=O)c2cnc3cncc(-c4ccc(C(F)(F)F)cc4)c3n2)CC1` [Example 8, N-(1-Cyanocyclopropyl)-8-(4-(trifluoromethyl)phenyl)pyrido[4,3-b]pyrazine-2-carboxamide] registered an EC (150% of control) of 0.39 µM.

`O=C(c1cnc2cncc(-c3ccc(Cl)cc3)c2n1)N1CCOCC1` [Example 9, (8-(4-Chlorophenyl)pyrido[4,3-b]pyrazin-2-yl)(morpholino)methanone] had an EC (150% of control) of 0.65 µM.

`O=C(c1cnc2cncc(-c3ccc(C(F)(F)F)cc3)c2n1)N1CCOCC1` [Example 10, Morpholino(8-(4-(trifluoromethyl)phenyl)pyrido[4,3-b]pyrazin-2-yl)methanone] showed an EC (150% of control) of 2.96 µM.

Consider `O=C(NCc1ccccc1)c1cnc2cncc(-c3ccc(C(F)(F)F)cc3)c2n1` [Example 11, N-Benzyl-8-(4-(trifluoromethyl)phenyl)pyrido[4,3-b]pyrazine-2-carboxamide], for which the EC (150% of control) was 0.41 µM.

With `O=C(NCc1ccccc1)c1cnc2cncc(-c3ccc(Cl)cc3)c2n1` [Example 12, N-Benzyl-8-(4-chlorophenyl)pyrido[4,3-b]pyrazine-2-carboxamide], the EC (150% of control) is 0.26 µM.

Turning to `NC(=O)c1cnc2cncc(-c3ccc(Cl)cc3Cl)c2n1` [Example 13, 8-(2,4-Dichlorophenyl)pyrido[4,3-b]pyrazine-2-carboxamide], the EC (150% of control) turned out to be 0.28 µM.

Turning to `NC(=O)c1cnc2cncc(-c3ccc(F)cc3)c2n1` [Example 14, 8-(4-Fluorophenyl)pyrido[4,3-b]pyrazine-2-carboxamide], the EC (150% of control) turned out to be 0.1 µM.

On to `NC(=O)c1cnc2cncc(-c3cc(F)c(F)c(F)c3)c2n1` [Example 15, 8-(3,4,5-Trifluorophenyl)pyrido[4,3-b]pyrazine-2-carboxamide], for which the EC (150% of control) was found to be 0.55 µM.

Turning to `NC(=O)c1cnc2cncc(-c3ccccc3F)c2n1` [Example 16, 8-(2-Fluorophenyl)pyrido[4,3-b]pyrazine-2-carboxamide], the EC (150% of control) amounted to 0.06 µM.

Compound `NC(=O)c1cnc2cncc(-c3ccc(C(F)(F)F)cc3F)c2n1` [Example 17, 8-(2-Fluoro-4-(trifluoromethyl)phenyl)pyrido[4,3-b]pyrazine-2-carboxamide] had an EC (150% of control) of 0.08 µM.

The values above are taken from patent US9670206B2, “Pyrido[4,3-B]pyrazine-2-carboxamides as neurogenic agents for the treatment of neurodegenerative disorders” (Hoffmann-La Roche Inc., priority 2013, dated 2017).
